Laboratory results reported in patent publication US10464947B2 (Incyte Corporation, priority 2013, dated 2019).
Where a name gives a salt, the structure may show the parent alone. Read-outs that look alike come from different tables or passages of the source.

Assays:
BRD4-BD2 [1] = target: T1, BRD4-BD2 (Homo sapiens (Human), UniProt O60885); assay: BRD4 AlphaScreen Assay (Example A1), BRD4-BD2; type: binding; settings: H4Ac4 peptide, 20 nM BRD4-BD2, read-out: BRD4 BD-2 enzyme IC50
Experimental: (§1) BRD4-BD1 and BRD4-BD2 assays were conducted in white 384-well polystyrene plate in a final volume of 20 μL for BD1 and 40 μL for BD2. Inhibitors were first serially diluted in DMSO and added to the plate wells before the addition of other reaction components. […] After plate sealing, the plate was incubated in the dark at room temperature for 75 min. before reading on a PHERAstar FS plate reader (BMG Labtech). IC50 determination was performed by fitting the curve of percent control activity versus the log of the inhibitor concentration using the GraphPad Prism 5.0 software.

C-myc in KMS.12.BM cells = assay: KMS.12.BM C-Myc ELISA Assay (Example C1); type: cell-based; settings: Homo sapiens, 2 h
Experimental: KMS.12.BM C-Myc ELISA Assay
KMS.12.BM cell line (human myeloma) was purchased from JCRB (Osaka, Japan) and maintained in RPMI with 10% FBS culture medium. To measure the C-myc inhibitory activity of the compounds, the KMS.12.BM cells are plated in the RPMI culture medium at 75000 cells/well/per 200 μL into a 96-well flat bottom polystyrene tissue culture plate (Corning through VWR, NJ), in the presence or absence of a concentration range of test compounds. After 2 h, cells are pelleted and lysed with Cell Extraction Buffer (BioSource, Carlsbad, Calif.) in the presence of protease inhibitors (Life Technologies, Grand Island, N.Y. and Sigma, St Louis, Mo.). Clarified lyses are tested in a C-myc commercial ELISA (Life Technologies, Grand Island, N.Y.).

KMS.12.BM cells = assay: KMS.12.BM Cell Viability Assay (Example B1); type: cell-based, human; settings: 3 days, Cell Titer-GLO, read-out: KMS cellular IC50
Procedure, shortened: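 KMS.12.BM human myeloma cells, 5000 cells/well in RPMI with 10% FBS, exposed to a compound concentration range for 3 days. Viable cells measured by ATP-based Cell Titer-GLO luminescence after 10 min at room temperature.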

BRD4-BD1 [2] = target: T2, BRD4-BD1 (Homo sapiens (Human), UniProt O60885); assay: BRD4 AlphaScreen Assay (Example A1), BRD4-BD1; type: binding; settings: H4Ac4 peptide, 3.8 nM BRD4-BD1, read-out: BRD4 BD-1 enzyme IC50
Experimental: as §1

BRD4-BD2 [3] = target: T1, BRD4-BD2; assay: BRD4 AlphaScreen Assay (Example A2), BRD4-BD2; type: binding; settings: read-out: BRD4 BD-2 enzyme IC50
Experimental: as §1, with “40” for “20”, “60” for “40”, “components. […] The assays were carried out at room temperature in the assay buffer (50 mM Tris-HCl, pH 7.5, 0.01% Tween-20, 0.01% BSA, 5 mM DTT), containing 50 nM Biotin-labeled tetra-acetylated histone H4 peptide (H4Ac4) and BRD4-BD1 or BRD4-BD2 protein at concentration less than 1 nM.” for “components.”

BRD4-BD1 [4] = target: T2, BRD4-BD1; assay: BRD4 AlphaScreen Assay (Example A2), BRD4-BD1; type: binding; settings: read-out: BRD4 BD-1 enzyme IC50
Experimental: as §1, with “40” for “20”, “60” for “40”, “components. […] The assays were carried out at room temperature in the assay buffer (50 mM Tris-HCl, pH 7.5, 0.01% Tween-20, 0.01% BSA, 5 mM DTT), containing 50 nM Biotin-labeled tetra-acetylated histone H4 peptide (H4Ac4) and BRD4-BD1 or BRD4-BD2 protein at concentration less than 1 nM.” for “components.”

Row | SMILES | IC50 (C-myc in KMS.12.BM cells) [nM] | IC50 (KMS.12.BM cells; Homo sapiens, 72 h) [nM] | other results
1 | Cc1noc(C)c1-c1ccc2[nH]c(=O)n3c2c1OCC3c1ccccc1 (single isomer, unassigned) [Example 1A, 7-(3,5-Dimethylisoxazol-4-yl)-4-phenyl-4,5-dihydroimidazo[1,5,4-de][1,4]benzoxazin-2(1H)-one] | < 1000 |  | IC50 (BRD4-BD2 [1]): ≤ 100 nM; IC50 (KMS.12.BM cells): < 1000 nM; IC50 (BRD4-BD1 [2]): ≤ 100 nM
2 | Cc1noc(C)c1-c1ccc2[nH]c(=O)n3c2c1OCC3c1ccccc1 (single isomer, unassigned) [Example 1B, 7-(3,5-Dimethylisoxazol-4-yl)-4-phenyl-4,5-dihydroimidazo[1,5,4-de][1,4]benzoxazin-2(1H)-one] |  |  | IC50 (BRD4-BD2 [1]): 100 to 1000 nM; IC50 (BRD4-BD1 [2]): 100 to 1000 nM
3 | Cc1noc(C)c1-c1ccc2[nH]c(=O)n3c2c1OCC3c1cccnc1C(=O)NCCO (single isomer, unassigned) [Example 135, 3-[7-(3,5-Dimethylisoxazol-4-yl)-2-oxo-1,2,4,5-tetrahydroimidazo[1,5,4-de][1,4]benzoxazin-4-yl]-N-(2-hydroxyethyl)pyridine-2-carboxamide] | < 1000 | < 1000 | IC50 (BRD4-BD2 [3]): < 100 nM; IC50 (BRD4-BD1 [4]): < 100 nM
4 | Cc1noc(C)c1-c1ccc2[nH]c(=O)n3c2c1OCC3c1cccnc1C(=O)NCC(F)(F)F (single isomer, unassigned) [Example 136, 3-[7-(3,5-dimethylisoxazol-4-yl)-2-oxo-1,2,4,5-tetrahydroimidazo[1,5,4-de][1,4]benzoxazin-4-yl]-N-(2,2,2-trifluoroethyl)pyridine-2-carboxamide] | < 1000 | < 1000 | IC50 (BRD4-BD2 [3]): < 100 nM; IC50 (BRD4-BD1 [4]): < 100 nM
5 | Cc1noc(C)c1-c1ccc2[nH]c(=O)n3c2c1OCC3c1ccccc1OCC(=O)NCCO (stereo not drawn) [Example 50, 2-{2-[7-(3,5-Dimethylisoxazol-4-yl)-2-oxo-1,2,4,5-tetrahydroimidazo[1,5,4-de][1,4]benzoxazin-4-yl]phenoxy}-N-(2-hydroxyethyl)acetamide] | < 1000 | < 1000 | 
6 | Cc1noc(C)c1-c1ccc2nc(C(=O)N3CCOCC3)n3c2c1OC[C@@H]3c1ccccn1 [Example 94, (4S)-7-(3,5-Dimethylisoxazol-4-yl)-2-(morpholin-4-ylcarbonyl)-4-pyridin-2-yl-4,5-dihydroimidazo[1,5,4-de][1,4]benzoxazine] | < 1000 | < 1000 | 
7 | CNC(=O)c1nc2ccc(-c3c(C)noc3C)c3c2n1[C@@H](c1ccccn1)CO3 [Example 95, (4S)-7-(3,5-Dimethylisoxazol-4-yl)-N-methyl-4-pyridin-2-yl-4,5-dihydroimidazo[1,5,4-de][1,4]benzoxazine-2-carboxamide] | < 1000 | < 1000 | 
8 | Cc1noc(C)c1-c1ccc2nc(C(N)=O)n3c2c1OC[C@@H]3c1ccccn1 [Example 96, (4S)-7-(3,5-Dimethylisoxazol-4-yl)-4-pyridin-2-yl-4,5-dihydroimidazo[1,5,4-de][1,4]benzoxazine-2-carboxamide] | < 1000 | < 1000 | 
9 | CC(=O)N1CCC(c2nc3ccc(-c4c(C)noc4C)c4c3n2[C@@H](c2ccccn2)CO4)CC1 [Example 109, (4S)-2-(1-Acetylpiperidin-4-yl)-7-(3,5-dimethylisoxazol-4-yl)-4-pyridin-2-yl-4,5-dihydroimidazo[1,5,4-de][1,4]benzoxazine] | < 1000 | < 1000 | 
10 | CC(=O)N1CC=C(c2nc3ccc(-c4c(C)noc4C)c4c3n2[C@@H](c2ccccn2)CO4)CC1 [Example 110, (4S)-2-(1-acetyl-1,2,3,6-tetrahydropyridin-4-yl)-7-(3,5-dimethylisoxazol-4-yl)-4-pyridin-2-yl-4,5-dihydroimidazo[1,5,4-de][1,4]benzoxazine] | < 1000 | < 1000 | 
11 | Cc1noc(C)c1-c1ccc2[nH]c(=O)n3c2c1OCC3c1cccnc1C(N)=O (stereo not drawn) [Example 127, 3-[7-(3,5-Dimethylisoxazol-4-yl)-2-oxo-1,2,4,5-tetrahydroimidazo[1,5,4-de][1,4]benzoxazin-4-yl]pyridine-2-carboxamide trifluoroacetate] | < 1000 | < 1000 | 
12 | CNC(=O)c1ncccc1C1COc2c(-c3c(C)noc3C)ccc3[nH]c(=O)n1c23 (stereo not drawn) [Example 128, 3-[7-(3,5-Dimethylisoxazol-4-yl)-2-oxo-1,2,4,5-tetrahydroimidazo[1,5,4-de][1,4]benzoxazin-4-yl]-N-methylpyridine-2-carboxamide] | < 1000 | < 1000 | 
13 | Cc1noc(C)c1-c1ccc2[nH]c(=O)n3c2c1OCC3c1cccnc1CN (stereo not drawn) [Example 130, 4-[2-(Aminomethyl)pyridin-3-yl]-7-(3,5-dimethylisoxazol-4-yl)-4,5-dihydroimidazo[1,5,4-de][1,4]benzoxazin-2(1H)-one bis(trifluoroacetate)] | < 1000 | < 1000 | 
14 | CC(=O)NCc1cc(-c2c(C)noc2C)c2c3c1[nH]c(=O)n3[C@@H](c1ccccn1)CO2 [Example 138, N-{[(4S)-7-(3,5-Dimethylisoxazol-4-yl)-2-oxo-4-pyridin-2-yl-1,2,4,5-tetrahydroimidazo[1,5,4-de][1,4]benzoxazin-9-yl]methyl}acetamide trifluoroacetate] | < 1000 | < 1000 | 
15 | Cc1noc(C)c1-c1cc(CNC(=O)Cc2ccccc2)c2[nH]c(=O)n3c2c1OC[C@@H]3c1ccccn1 [Example 139, N-{[(4S)-7-(3,5-Dimethylisoxazol-4-yl)-2-oxo-4-pyridin-2-yl-1,2,4,5-tetrahydroimidazo[1,5,4-de][1,4]benzoxazin-9-yl]methyl}-2-phenylacetamide] | 1000 to 10000 | < 1000 | 
16 | COCC(=O)NCc1cc(-c2c(C)noc2C)c2c3c1[nH]c(=O)n3[C@@H](c1ccccn1)CO2 [Example 140, N-{[(4S)-7-(3,5-Dimethylisoxazol-4-yl)-2-oxo-4-pyridin-2-yl-1,2,4,5-tetrahydroimidazo[1,5,4-de][1,4]benzoxazin-9-yl]methyl}-2-methoxyacetamide] | < 1000 | < 1000 | 
17 | Cc1noc(C)c1-c1cc(CNS(C)(=O)=O)c2[nH]c(=O)n3c2c1OC[C@@H]3c1ccccn1 [Example 141, N-{[(4S)-7-(3,5-Dimethylisoxazol-4-yl)-2-oxo-4-pyridin-2-yl-1,2,4,5-tetrahydroimidazo[1,5,4-de][1,4]benzoxazin-9-yl]methyl}methanesulfonamide] | < 1000 | < 1000 | 
18 | Cc1noc(C)c1-c1cc(CNC(=O)NC(C)C)c2[nH]c(=O)n3c2c1OC[C@@H]3c1ccccn1 [Example 142, N-{[(4S)-7-(3,5-Dimethylisoxazol-4-yl)-2-oxo-4-pyridin-2-yl-1,2,4,5-tetrahydroimidazo[1,5,4-de][1,4]benzoxazin-9-yl]methyl}-N′-isopropylurea] | < 1000 |  | IC50 (KMS.12.BM cells; Homo sapiens, KMS-12-BM, 72 h): < 1000 nM
